Reference: US11903912B2, “Composition for preventing and treating breast cancer including selenopsammaplin A as active ingredients” (Seoul National University R & DB Foundation, priority 2019, dated 2024)

Key:
[1] = system: HCT116 human colon cancer cells; assay: SRB cytotoxicity test, HCT116; assay type: cell-based; settings: SRB assay, cultured 3 days
Method: A cytotoxicity test was performed using synthesized selenopsammaplin A and derivatives thereof (Lee S K et al […] Chem Biol Interact 115:215-28).
The cytotoxicity test was performed on a total of five representative cancer cell lines. The cytotoxicity of each compound was measured using an SRB assay method (human lung cancer cells, A549; human colon cancer cells, HCT116; human breast cancer cells, MDA-MB231; human liver cancer cells, SK-HEP-1; human gastric cancer cells, SNU638).
Each cell line was sub-cultured once or twice using Roswell Park Memorial Institute (RPMI) medium 1640 (RPMI 1640) or Dulbecco's Modified Eagle's Medium (DMEM) containing 10% fetal bovine serum (FBS) inactivated by heat, 100 units/mL of penicillin, 100 μg/mL of streptomycin, and 250 ng/mL of amphotericin B at 37° C. for 1 week under a 5% CO2 condition. All cells were […] in liquid nitrogen, and then passaged three or more times to be used in the experiment. The effects of compounds on cell growth were measured using a sulforhodamine B (SRB) method (Lee et al (1998) Chemico-Biol Interact 115:215-228).
Specifically, each human cancer cell line used in the present invention was sub-cultured in an RPMI medium containing 10% FBS, 1% PSF, and the like, and 10 μl of a sample dissolved in 10% DMSO and 190 μl (4-5×10^4 cells/ml) of the cell suspension were added to each well of a 96-well plate and cultured for 3 days. 190 μl of the cell suspension was added to at least 16 wells and cultured for 30 minutes, and used as a zero-day control. The cultured cells were fixed with 10% trichloroacetic acid (TCA) and then stained with an SRB solution, and the staining solution was dissolved with 10 mM Tris-base, and then absorbance at 515 nm was measured. Using the case of culturing in 10% DMSO as a control, cell viability according to each test material treatment was measured using Equation 1 below. Etoposide was used as a positive control. % Viability=(OD(sample)−OD(0-day))/(OD(10% DMSO)−OD(0-day))×100 [Equation 1]
Assuming that a control not-treated with the sample was set at 100%, the values of sample-treated groups were expressed as percentage with respect to the control, and each test material treatment results were obtained as the mean±SEM of two or three tests. The IC50 value is the concentration of the test material for a 50% survival rate.

[2] = system: EMT markers in MDA-MB-231 cells; assay: Gene expression of EMT markers, real-time PCR; assay type: cell-based, human; settings: MDA-MB-231, real-time PCR
Method: To confirm the EMT-related gene expression levels of the human breast cancer cell line MDA-MB-231, an experiment was performed as follows. To examine the EMT marker expression levels of the human breast cancer cell line MDA-MB-231, breast cancer cells were spread at a concentration of 1×10^6 cells/well on an RPMI medium containing 10% FBS in a 100 mm culture dish, cultured at 37° C. for 24 hours under a 5% CO2 condition, and then washed twice with phosphate-buffered saline (PBS). Attached cells were washed twice with PBS, the TRI reagent (TRIzol (#15596-026, Invitrogen, Grand Island, N.Y.)) was used to disrupt the cells, and then CHCl3 was added thereto to extract RNA, followed by precipitation using isopropyl alcohol. The RNA precipitate was washed with 70% ethanol, dried in air, and then […] using nuclease-free water (AM9937, Ambion, Austin, Tex.), followed by heating at 55° C. for 10 minutes and heat treatment at 70° C. for 5 minutes, so that RNA was present in a single strand state. Total RNA was quantified using NanoDrop (ND-1000, Dae Myung Science, Seoul, Korea) and diluted to 1 μg/μL, and then cDNA was produced using Avian Myeloblastosis Virus (AMV) Reverse Transcriptase (M5108, Promega, Madison, Wis.) and an oligo(dT)15 primer (C110B, Promega, Madison, Wis.). A target gene was amplified in a MiniOpticon™ Real-time PCR Detection system (CFB-3120, Bio-Rad, Hercules, Calif.) using iQTM SYBR Green Supermix (#170-8880, Bio-Rad, Hercules, Calif.) and target gene-specific primers. Real-time PCR conditions were as follows: a PCR cycle of denaturation at 95° C. for 20 seconds; denaturation at 95° C. for 20 seconds; annealing at 56° C. for 20 seconds; and elongation at 72° C. for 30 seconds, and the PCR cycle was repeated 40 times, followed by the final process at 95° C. for 1 minute and at 55° C. for 1 minute. Ct values were determined by the method according to Livak K J et al ((1996) Method 25:402-408) using MJ Opticon Monitor software (Opticon Monitor 3.1.32, Bio-Rad, Hercules, Calif.), and calibrated with the Ct value of β-actin of the sample, and the mRNA expression of EMT markers in the breast cancer cell line is illustrated in FIGS. 7A to 7D.

## O=C(NCC[Se][Se]CCNC(=O)/C(Cc1ccccc1)=N/O)/C(Cc1ccccc1)=N/O [Compound 2, (2E,2′E)-N,N′-(diselenediylbis(ethane-2,1-diyl))bis(2-(hydroxyimino)-3-phenylpropanamide)]
[1]
  IC50: 90 nM
[2]
  mRNA expression of E-cadherin (CDH1): increased
  mRNA expression of N-cadherin (CDH2): suppressed
  mRNA expression of ZEB1: suppressed
  mRNA expression of vimentin (VIM): suppressed
